{"source": "patent US20240209016A1", "about": "“FLUORESCENT NUCLEOSIDE PHOSPHATES” (STEALTH LABELS BIOTECH AB, priority 2021, published 2024)", "tested_on": "Huh-7 cells", "assay": "alamarBlue cell viability (metabolic activity) assay", "assay_type": "cell-based", "settings": "analogous experiments, FIG. 10", "method": "The Huh-7 human liver cell line was used.\nAfter 24 h exposure with compounds 7 or 17, the conditioned medium was removed from the cells and used for the LDH leakage assay (see below). Freshly prepared alamarBlue cell viability reagent (Invitrogen, diluted 1:10 in CCM) was added, followed by incubation for 3 h at 37° C. and 5% CO2. The resulting resorufin fluorescence was read using an Optima Fluostar plate reader (BMG Labtech) Ex: 544 nm/Em: 590 nm. Dimethyl sulfoxide 5% and CCM alone (i.e. compounds 7 and 17 0 μM) were used as positive and negative controls for cell death, respectively.", "data": [{"smiles": "N#Cc1ccc2c(c1)Nc1ncnc3c1c-2cn3[C@@H]1O[C@H](COP(=O)(O)O)[C@@H](O)[C@H]1O", "note": "[7a, ((2R,3S,4R,5R)-5-(8-cyano-2,3,5,6-tetraazaaceanthrylen-2(6H)-yl)-3,4-dihydroxytetrahydrofuran-2-yl)methyl dihydrogen phosphate]", "values": [{"measurement": "toxicity (cytotoxicity assessment, monophosphate)", "result": "non-toxic"}]}]}
